Counter-ions that a name gives are not always drawn.
These compounds were tested on NQO1 specific enzyme activity in BEAS-2B cells (assay: BEAS-2B NQO1 MTT assay). Conditions: Homo sapiens, BEAS-2B, 48 h, BEAS-2B cells, 48 hours with compound, MTT readout; read-out: EC50 of NQO1 specific activity induction.
Type: cell-based
Source text: NAD(P)H:quinone oxidoreductase 1 (NQO1), also called DT diaphorase, is a homodimeric FAD-containing enzyme that catalyzes obligatory NAD(P)H-dependent two-electron reductions of quinones and protects cells against the toxic and neoplastic effects of free radicals and reactive oxygen species arising from one-electron reductions. The transcription of NQO1 is finely regulated by NRF2, and thus NQO1 activity is a good marker for NRF2 activation. On day one, frozen BEAS-2B cells (ATCC) are thawed in a water bath, counted, and re-suspended at a concentration of 250,000 cells/mL. Fifty microliters of cells are plated in 384 well black clear-bottomed plates. Plates are incubated at 37° C., 5% CO2 overnight. On day two, plates are centrifuged and 50 nL of compound or controls are added to the cells. Plates are then incubated at 37° C., 5% CO2 for 48 hours. On day four, medium is aspirated from the plate and crude cell lysates are made by adding 13 uL of 1× Cell Signaling Technologies lysis buffer with 1 Complete, Mini, EDTA-free Protease Inhibitor Tablet (Roche) for each 10 mL of lysis buffer. After lysis plates are incubated for 20 minutes at room temperature. Two microliters of lysate are removed for use in Cell Titer Glo assay (Promega) and MTT cocktail is prepared (Prochaska et. al. 1998) for measurement of NQO1 activity. Fifty microliters of MTT cocktail is added to each well, plate is centrifuged, and analyzed on an Envision plate reader (Perkin Elmer) using Absorbance 570 nm label for 30 minutes. Product formation is measured kinetically and the EC50 of NQO1 specific activity induction is calculated by plotting the change in absorbance (Delta OD/min) versus the log of compound concentration followed by 3-parameter fitting.

SMILES | EC50 [nM]
CC[C@@H]1CN(Cc2cc([C@@H](c3ccc4c(nnn4C)c3C)C(C)(C)C(=O)O)ccc2C)Cc2ccccc2O1 [Example 26, (S)-3-(1,4-Dimethyl-1H-benzo[d][1,2,3]triazol-5-yl)-3-(3-(((R)-2-ethyl-2,3-dihydrobenzo[f][1,4]oxa-zepin-4(5H)-yl)methyl)-4-methylphenyl)-2,2-dimethylpropanoic acid, trifluoroacetic acid salt] | 1 to 10
CC[C@@H]1CN(Cc2cc([C@H](c3ccc4c(nnn4C)c3C)C(C)(C)C(=O)O)ccc2C)Cc2ccccc2O1 [Example 27, (R)-3-(1,4-Dimethyl-1H-benzo[d][1,2,3]triazol-5-yl)-3-(3-(((R)-2-ethyl-2,3-dihydrobenzo[f][1,4]oxa-zepin-4(5H)-yl)methyl)-4-methylphenyl)-2,2-dimethylpropanoic acid] | 100 to 1000
CC[C@@H]1CN(Cc2cc([C@@H](c3ccc4c(nnn4C)c3C)C(C)(C)C(=O)O)ccc2C)Cc2cncc(F)c2O1 [Example 28, (S)-3-(1,4-Dimethyl-1H-benzo[d][1,2,3]triazol-5-yl)-3-(3-(((R)-2-ethyl-9-fluoro-2,3-dihydropyrido[3,4-f][1,4]oxazepin-4(5H)-yl)methyl)-4-methylphenyl)-2,2-dimethylpropanoic acid] | < 1
CC[C@@H]1CN(Cc2cc([C@@H](c3ccc4c(nnn4C)c3C)C(C)(C)C(=O)O)ccc2C)Cc2cnc(Cl)cc2O1 [Example 29] | < 1
Cc1ccc([C@@H](c2ccc3c(nnn3C)c2C)C(C)(C)C(=O)O)cc1CN1Cc2ncccc2OC(C)(C)C1 [Example 30, formic acid salt] | 1 to 10
CC[C@@H]1CN(Cc2cc(C(c3ccc4c(nnn4C)c3C)C(C)(C)C(=O)O)ccc2C)Cc2c(F)cccc2O1 (stereo partly drawn) [Example 31, 3-(1,4-Dimethyl-1H-benzo[d][1,2,3]triazol-5-yl)-3-(3-(((R)-2-ethyl-6-fluoro-2,3-dihydrobenzo[f][1,4]oxazepin-4(5H)-yl)methyl)-4-methylphenyl)-2,2-dimethylpropanoic Acid, Formic Acid Salt] | < 1
CC[C@@H]1CN(Cc2cc(C(c3ccc4c(nnn4C)c3C)C(C)(C)C(=O)O)ccc2C)Cc2cc(F)ccc2O1 (stereo partly drawn) [Example 32, 3-(1,4-Dimethyl-1H-benzo[d][1,2,3]triazol-5-yl)-3-(3-(((R)-2-ethyl-7-fluoro-2,3-dihdyrobenzo[f][1,4]oxaz-epin-4(5H)-yl)methyl)-4-methylphenyl)-2,2-dimethylpropanoic acid, formic acid salt] | 1 to 10
CC[C@@H]1CN(Cc2cc(C(c3ccc4c(nnn4C)c3C)C(C)(C)C(=O)O)ccc2C)Cc2ccc(F)cc2O1 (stereo partly drawn) [Example 33, 3-(1,4-Dimethyl-1H-benzo[d][1,2,3]triazol-5-yl)-3-(3-(((R)-2-ethyl-8-fluoro-2,3-dihydrobenzo[f][1,4]oxaz-epin-4(5H)-yl)methyl)-4-methylphenyl)-2,2-dimethylpropanoic acid, formic acid salt] | 10 to 100
CC[C@@H]1CN(Cc2cc(C(c3ccc4c(nnn4C)c3C)C(C)(C)C(=O)O)ccc2C)Cc2cccc(F)c2O1 (stereo partly drawn) [Example 34, 3-(1,4-Dimethyl-1H-benzo[d][1,2,3]triazol-5-yl)-3-(3-(((R)-2-ethyl-9-fluoro-2,3-dihydrobenzo[f][1,4]oxaz-epin-4(5H)-yl)methyl)-4-methylphenyl)-2,2-dimethylpropanoic acid, formic acid salt] | 100 to 1000
Cc1ccc(C(c2ccc3c(nnn3C)c2C)C(C)(C)C(=O)O)cc1CN1Cc2cccc(F)c2OC(C)(C)C1 (stereo not shown) [Example 35, 3-(1,4-Dimethyl-1H-benzo[d][1,2,3]triazol-5-yl)-3-(3-((9-fluoro-2,2-dimethyl-2,3-dihydrobenzo[f][1,4]oxaz-epin-4(5H)-yl)methyl)-4-methylphenyl)-2,2-dimethylpropanoic acid] | 1 to 10
CCC1Cc2c(F)cccc2CN(Cc2cc(C(c3ccc4c(nnn4C)c3C)C(C)(C)C(=O)O)ccc2C)C1 (stereo not shown) [Example 36, 3-(1,4-Dimethyl-1H-benzo[d][1,2,3]triazol-5-yl)-3-(3-((4-ethyl-6-fluoro-4,5-dihydro-1H-benzo[c]azepin-2(3H)-yl)methyl)-4-methylphenyl)-2,2-dimethylpropanoic acid] | 1 to 10
Cc1ccc(C(c2ccc3c(nnn3C)c2C)C(C)(C)C(=O)O)cc1CN1CCCn2cncc2C1 (stereo not shown) [Example 37, 3-(3-((6,7-Dihydro-5H-imidazo[1,5-a][1,4]diazepin-8(9H)-yl)methyl)-4-methylphenyl)-3-(1,4-dimethyl-1H-benzo[d][1,2,3]triazol-5-yl)-2,2-dimethylpropanoate, Sodium salt] | 1000 to 10000
CC[C@@H]1CN(Cc2cc([C@@H](c3ccc4c(nnn4C)c3C)[C@@H](C)C(=O)O)ccc2C)Cc2ccccc2O1 [Example 38, (2R,3S)-3-(1,4-dimethyl-1H-benzo[d][1,2,3]triazol-5-yl)-3-(3-(((R)-2-ethyl-2,3-dihydrobenzo[f][1,4]oxazepin-4(5H)-yl)methyl)-4-methylphenyl)-2-methylpropanoic Acid, Formic Acid Salt] | 10 to 100
CC[C@@H]1CN(Cc2cc([C@H](c3ccc4c(nnn4C)c3C)[C@H](C)C(=O)O)ccc2C)Cc2ccccc2O1 [Example 39, (2S,3R)-3-(1,4-Dimethyl-1H-benzo[d][1,2,3]triazol-5-yl)-3-(3-(((R)-2-ethyl-2,3-dihydrobenzo[f][1,4]oxazepin-4(5H)-yl)methyl)-4-methylphenyl)-2-methylpropanoic Acid] | 10 to 100
CC[C@@H]1CN(Cc2cc([C@H](c3ccc4c(nnn4C)c3C)[C@@H](C)C(=O)O)ccc2C)Cc2ccccc2O1 [Example 40, (2R,3R)-3-(1,4-Dimethyl-1H-benzo[d][1,2,3]triazol-5-yl)-3-(3-(((R)-2-ethyl-2,3-dihydrobenzo[f][1,4]oxazepin-4(5H)-yl)methyl)-4-methylphenyl)-2-methylpropanoic Acid] | 10 to 100
CC[C@@H]1CN(Cc2cc([C@@H](c3ccc4c(nnn4C)c3C)[C@H](C)C(=O)O)ccc2C)Cc2ccccc2O1 [Example 41, (2S,3S)-3-(1,4-Dimethyl-1H-benzo[d][1,2,3]triazol-5-yl)-3-(3-(((R)-2-ethyl-2,3-dihydrobenzo[f][1,4]oxazepin-4(5H)-yl)methyl)-4-methylphenyl)-2-methylpropanoic Acid] | 100 to 1000
CC[C@@H]1CN(Cc2cc([C@H](c3ccc4c(nnn4C)c3C)C(C)C(=O)O)ccc2C)Cc2cc(F)ccc2O1 (stereo partly drawn) [Example 42, (3R)-3-(1,4-Dimethyl-1H-benzo[d][1,2,3]triazol-5-yl)-3-(3-(((R)-2-ethyl-7-fluoro-2,3-dihydrobenzo[f][1,4]oxazepin-4(5H)-yl)methyl)-4-methylphenyl)-2-methylpropanoic Acid, Trifluoroacetic Acid Salt] | 100 to 1000
CC[C@@H]1CN(Cc2cc([C@@H](CC(=O)O)c3ccc4c(nnn4C)c3C)ccc2C)Cc2cnccc2O1 [Example 43, (R)-3-(1,4-Dimethyl-1H-benzo[d][1,2,3]triazol-5-yl)-3-(3-(((R)-2-ethyl-2,3-dihydropyrido[3,4-f][1,4]oxazepin-4(5H)-yl)methyl)-4-methylphenyl)propanoic Acid, Formic Acid Salt] | 1000 to 10000
Cc1ccc(C(c2ccc3c(nnn3C)c2C)C(C)(C)C(=O)O)cc1CN1CCOc2ccccc2C1 (stereo not shown) [Example 44, 3-(3-((2,3-Dihydrobenzo[f][1,4]oxazepin-4(5H)-yl)methyl)-4-methylphenyl)-3-(1,4-dimethyl-1H-benzo[d][1,2,3]triazol-5-yl)-2,2-dimethylpropanoic Acid, Formic Acid Salt] | 10 to 100
CC[C@@H]1CN(Cc2cc(C(CC(=O)O)c3cc(OC)c4c(nnn4C)c3C)ccc2C)Cc2ccccc2O1 (stereo partly drawn) [Example 45, 3-(3-(((R)-2-Ethyl-2,3-dihydrobenzo[f][1,4]oxazepin-4(5H)-yl)methyl)-4-methylphenyl)-3-(7-methoxy-1,4-dimethyl-1H-benzo[d][1,2,3]triazol-5-yl)propanoic Acid, Formic Acid Salt] | 100 to 1000
CC[C@@H]1CN(Cc2cc(C(CC(=O)O)c3cnc4c(nnn4C)c3C)ccc2C)Cc2ccccc2O1 (stereo partly drawn) [Example 47, 3-(3,7-Dimethyl-3H-[1,2,3]triazolo[4,5-b]pyridin-6-yl)-3-(3-(((R)-2-ethyl-2,3-dihydrobenzo[f][1,4]oxazepin-4(5H)-yl)methyl)-4-methylphenyl)propanoic Acid, Trifluoroacetic Acid Salt] | 100 to 1000

Same assay, conditions: Homo sapiens, BEAS-2B, 48 h, read-out: EC50 of NQO1 specific activity induction

SMILES | EC50 [nM]
CC[C@@H]1CN(Cc2cc([C@@H](c3ccc4c(nnn4C)c3C)C(C)(C)C(=O)O)ccc2C)Cc2cnccc2O1 [Example 24, (S)-3-(1,4-Dimethyl-1H-benzo[d][1,2,3]triazol-5-yl)-3-(3-(((R)-2-ethyl-2,3-dihydropyrido[3,4-f][1,4]oxazepin-4(5H)-yl)methyl)-4-methylphenyl)-2,2-dimethylpropanoic Acid, Formic Acid Salt] | < 1

— patent publication US10604509B2, “Nrf2 regulators” (GlaxoSmithKline Intellectual Property Development Limited, priority 2015, dated 2020)
